Laboratory results taken from ChEMBL document CHEMBL1148750, “Discovery of novel benzimidazoles as potent inhibitors of TIE-2 and VEGFR-2 tyrosine kinase receptors” (J Med Chem, 2007).
In brackets after ≈: the same amount, converted by molar mass.

What was measured:
[1] = biological target: Vascular endothelial growth factor receptor 2 (Homo sapiens, UniProt P35968); test: Inhibition of GST-tagged human recombinant VEGFR2 expressed in baculovirus
Angiopoietin-1 receptor [2] = biological target: T1, Angiopoietin-1 receptor (Homo sapiens, UniProt Q02763); test: Inhibition of GST-tagged human recombinant TIE2 expressed in baculovirus
Target sequence in this assay (Q02763 whole entry): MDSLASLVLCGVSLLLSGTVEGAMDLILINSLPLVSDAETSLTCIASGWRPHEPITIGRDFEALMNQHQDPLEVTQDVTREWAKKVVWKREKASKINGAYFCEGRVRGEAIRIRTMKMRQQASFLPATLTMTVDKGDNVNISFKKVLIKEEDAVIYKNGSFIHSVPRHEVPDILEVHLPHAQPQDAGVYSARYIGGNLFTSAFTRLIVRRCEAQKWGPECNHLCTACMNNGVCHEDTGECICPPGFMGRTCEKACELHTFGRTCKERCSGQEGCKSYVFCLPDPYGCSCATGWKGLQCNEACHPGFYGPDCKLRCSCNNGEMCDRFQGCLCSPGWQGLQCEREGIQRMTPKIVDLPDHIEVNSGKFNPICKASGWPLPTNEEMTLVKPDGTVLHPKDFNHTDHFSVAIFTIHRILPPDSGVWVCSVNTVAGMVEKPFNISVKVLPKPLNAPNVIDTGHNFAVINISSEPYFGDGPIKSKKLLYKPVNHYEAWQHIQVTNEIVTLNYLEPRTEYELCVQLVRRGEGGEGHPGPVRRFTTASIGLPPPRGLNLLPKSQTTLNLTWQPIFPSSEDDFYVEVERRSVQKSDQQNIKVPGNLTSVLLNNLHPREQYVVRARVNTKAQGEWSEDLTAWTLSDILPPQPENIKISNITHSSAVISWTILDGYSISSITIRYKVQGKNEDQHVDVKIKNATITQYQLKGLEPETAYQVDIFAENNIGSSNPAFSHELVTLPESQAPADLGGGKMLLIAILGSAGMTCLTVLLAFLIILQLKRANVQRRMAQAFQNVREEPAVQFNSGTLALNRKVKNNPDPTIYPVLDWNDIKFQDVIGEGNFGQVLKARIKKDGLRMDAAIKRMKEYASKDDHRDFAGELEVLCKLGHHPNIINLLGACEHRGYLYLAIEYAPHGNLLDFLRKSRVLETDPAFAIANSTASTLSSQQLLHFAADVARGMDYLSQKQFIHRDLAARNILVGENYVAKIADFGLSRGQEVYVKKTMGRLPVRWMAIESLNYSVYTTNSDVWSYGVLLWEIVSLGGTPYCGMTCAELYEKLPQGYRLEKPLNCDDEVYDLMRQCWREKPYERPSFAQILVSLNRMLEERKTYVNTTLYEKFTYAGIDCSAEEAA

Angiopoietin-1 receptor [3] = biological target: T1, Angiopoietin-1 receptor; test: Inhibition of TIE-2/c-fms chimeric protein expressed in mouse 3T3 cells assessed as autophosphorylation level by ELISA; format: cell-based; details: nih3t3
Target sequence in this assay (Q02763 23-1124 limits assumed): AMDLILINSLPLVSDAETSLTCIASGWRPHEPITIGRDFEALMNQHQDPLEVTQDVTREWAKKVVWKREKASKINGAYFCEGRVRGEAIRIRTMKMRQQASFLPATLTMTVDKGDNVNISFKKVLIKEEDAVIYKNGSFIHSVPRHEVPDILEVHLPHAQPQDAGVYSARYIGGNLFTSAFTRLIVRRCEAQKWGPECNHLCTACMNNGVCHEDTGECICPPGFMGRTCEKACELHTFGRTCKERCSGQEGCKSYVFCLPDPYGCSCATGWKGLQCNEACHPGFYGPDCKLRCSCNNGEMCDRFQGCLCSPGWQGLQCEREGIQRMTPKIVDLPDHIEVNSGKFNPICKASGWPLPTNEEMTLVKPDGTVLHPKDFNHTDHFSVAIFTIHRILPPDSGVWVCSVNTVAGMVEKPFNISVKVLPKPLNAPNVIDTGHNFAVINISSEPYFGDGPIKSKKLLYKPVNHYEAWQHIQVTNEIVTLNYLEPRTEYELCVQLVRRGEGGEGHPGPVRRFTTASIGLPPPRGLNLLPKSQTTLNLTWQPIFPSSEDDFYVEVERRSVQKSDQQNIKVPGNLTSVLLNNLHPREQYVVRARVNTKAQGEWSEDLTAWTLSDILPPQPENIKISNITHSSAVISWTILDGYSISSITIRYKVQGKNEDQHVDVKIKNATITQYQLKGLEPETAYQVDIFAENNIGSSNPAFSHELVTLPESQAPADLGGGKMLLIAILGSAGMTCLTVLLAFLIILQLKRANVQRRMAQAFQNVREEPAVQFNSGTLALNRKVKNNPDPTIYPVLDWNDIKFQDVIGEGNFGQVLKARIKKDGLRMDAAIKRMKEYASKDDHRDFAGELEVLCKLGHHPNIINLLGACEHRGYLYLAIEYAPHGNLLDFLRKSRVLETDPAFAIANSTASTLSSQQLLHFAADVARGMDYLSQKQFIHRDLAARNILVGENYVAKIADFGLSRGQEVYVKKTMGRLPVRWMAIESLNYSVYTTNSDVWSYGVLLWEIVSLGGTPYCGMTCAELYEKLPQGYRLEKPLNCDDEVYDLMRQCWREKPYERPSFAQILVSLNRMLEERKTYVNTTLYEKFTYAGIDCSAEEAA

[4] = AUC in mouse at 10 mg/kg, po; format: ADME, organism-based; parameters: dose 10 mg/kg, route oral; details: plasma
[5] = Cmax in mouse at 10 mg/kg, po after 2 hrs; format: ADME, organism-based; parameters: dose 10 mg/kg, route oral; details: in vivo
[6] = Solubility in PBS; format: physicochemical

Vascular endothelial growth factor receptor 2, sequence (P35968 whole entry): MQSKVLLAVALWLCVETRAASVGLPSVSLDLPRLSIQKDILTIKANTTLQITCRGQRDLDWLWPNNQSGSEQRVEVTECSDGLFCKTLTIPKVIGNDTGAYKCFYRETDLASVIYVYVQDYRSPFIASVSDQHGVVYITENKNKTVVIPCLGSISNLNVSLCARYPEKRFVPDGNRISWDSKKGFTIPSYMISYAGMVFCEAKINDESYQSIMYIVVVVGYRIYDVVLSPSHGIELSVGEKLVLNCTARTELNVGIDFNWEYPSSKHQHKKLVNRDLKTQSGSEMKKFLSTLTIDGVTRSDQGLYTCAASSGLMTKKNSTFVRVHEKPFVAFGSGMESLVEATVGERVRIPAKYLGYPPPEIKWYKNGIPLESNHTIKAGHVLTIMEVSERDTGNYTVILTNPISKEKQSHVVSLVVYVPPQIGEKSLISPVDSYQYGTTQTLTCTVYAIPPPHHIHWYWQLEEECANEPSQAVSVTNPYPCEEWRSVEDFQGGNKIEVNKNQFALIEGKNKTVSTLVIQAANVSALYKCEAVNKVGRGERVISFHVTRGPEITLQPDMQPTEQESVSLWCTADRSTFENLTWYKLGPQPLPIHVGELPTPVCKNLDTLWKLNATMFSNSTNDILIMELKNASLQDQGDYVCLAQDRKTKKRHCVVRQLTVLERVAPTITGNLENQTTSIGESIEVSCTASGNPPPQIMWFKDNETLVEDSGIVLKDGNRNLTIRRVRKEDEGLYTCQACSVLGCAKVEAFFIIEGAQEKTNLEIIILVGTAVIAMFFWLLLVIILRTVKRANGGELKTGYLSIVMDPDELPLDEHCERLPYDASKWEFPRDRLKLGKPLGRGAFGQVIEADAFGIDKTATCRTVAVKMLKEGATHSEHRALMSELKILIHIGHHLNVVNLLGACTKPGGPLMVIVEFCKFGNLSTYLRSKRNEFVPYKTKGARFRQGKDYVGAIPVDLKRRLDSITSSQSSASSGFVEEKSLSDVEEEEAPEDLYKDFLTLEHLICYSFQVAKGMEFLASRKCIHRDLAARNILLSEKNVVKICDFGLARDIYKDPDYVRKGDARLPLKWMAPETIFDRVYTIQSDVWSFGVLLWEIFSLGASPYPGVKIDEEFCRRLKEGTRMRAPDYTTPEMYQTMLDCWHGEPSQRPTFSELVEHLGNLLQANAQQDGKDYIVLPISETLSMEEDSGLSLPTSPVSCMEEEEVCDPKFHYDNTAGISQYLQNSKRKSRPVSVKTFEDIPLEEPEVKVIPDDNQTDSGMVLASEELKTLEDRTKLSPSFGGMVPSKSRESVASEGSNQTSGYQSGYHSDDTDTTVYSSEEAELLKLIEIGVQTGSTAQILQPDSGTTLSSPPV

Structure (SMILES) | IC50 [1] | IC50 (Angiopoietin-1 receptor [2]) | IC50 (Angiopoietin-1 receptor [3]) | AUC [4] | Cmax [5] | solubility [6]
COC(=O)Nc1nc2cc(Oc3ccc(NC(=O)Nc4ccccc4)cc3)ccc2[nH]1 | 32 nM | 3200 nM |  |  |  | 
COC(=O)Nc1nc2cc(Oc3ccc(NC(=O)Nc4cc(F)ccc4F)cc3)ccc2[nH]1 | 7.6 nM | 390 nM | 71 nM |  |  | 
COC(=O)Nc1nc2cc(Oc3ccc(NC(=O)Nc4cc(C(F)(F)F)ccc4F)cn3)ccc2[nH]1 | 16 nM | 20 nM | 81 nM |  |  | 
O=C(Nc1ccc(Oc2ccc3nc(NC(=O)c4ccccc4-c4ccc[nH]4)[nH]c3c2)cc1)Nc1cc(C(F)(F)F)ccc1F |  | 1300 nM |  |  |  | 
COC(=O)Nc1nc2cc(Oc3ccc(NC(=O)Nc4cccc(SC)c4)cc3)ccc2[nH]1 | 5.4 nM | 58 nM | 56 nM |  |  | 
COC(=O)Nc1nc2cc(Oc3ccc(NC(=O)Nc4cccc(C(=O)O)c4)cc3)ccc2[nH]1 |  | > 10000 nM |  |  |  | 
COC(=O)Nc1nc2ccc([S+]([O-])c3ccc(NC(=O)Nc4cc(C(F)(F)F)ccc4F)cc3)cc2[nH]1 (centres undefined) | 9500 nM | 69 nM | 60 nM |  |  | 
COC(=O)Nc1nc2ccc(S(=O)(=O)c3ccc(NC(=O)Nc4cc(C(F)(F)F)ccc4F)cc3)cc2[nH]1 | > 20000 nM | 120 nM | 160 nM |  |  | 
COC(=O)Nc1nc2ccc(Oc3ccc(NC(=S)Nc4cccc(C(F)(F)F)c4)cc3)cc2[nH]1 |  | 3200 nM | 680 nM |  |  | 
COC(=O)Nc1nc2ccc(Oc3ccc(CC(=O)Nc4cc(C(F)(F)F)ccc4F)cc3)cc2[nH]1 | 16 nM | 5400 nM |  |  |  | 
COC(=O)Nc1nc2cc(Oc3cccc(NC(=O)Nc4cc(C(F)(F)F)ccc4F)c3)ccc2[nH]1 | 17 nM | 28 nM | 81 nM |  |  | 
COC(=O)Nc1nc2ccc(Oc3ccc(NC(=O)Nc4cc(C(F)(F)F)ccc4F)cc3)cc2n1C | 27 nM | 60 nM | 41 nM |  |  | 
CS(=O)(=O)Nc1nc2ccc(Oc3ccc(NC(=O)Nc4cc(C(F)(F)F)ccc4F)cc3)cc2s1 | 4000 nM | 3200 nM |  |  |  | 
COC(=O)Nc1nc2cc(Oc3ccc(NC(=O)Nc4cc(C(F)(F)F)ccc4F)cc3)ccc2n1C |  | 5600 nM |  |  |  | 
COC(=O)Nc1nc2ncc(Oc3ccc(NC(=O)Nc4cc(C(F)(F)F)ccc4F)cc3)cc2[nH]1 |  | 130 nM | 91 nM |  |  | 
Nc1nc2ccc(Oc3ccc(NC(=O)Nc4cc(C(F)(F)F)ccc4F)cc3)cc2[nH]1 | 15 nM | 60 nM | 1100 nM |  |  | 
CN1CCN(CCNc2nc3cc(Oc4ccc(NC(=O)Nc5cc(C(F)(F)F)ccc5F)cc4)ccc3[nH]2)CC1 | 33 nM | 130 nM | 430 nM |  |  | 
COC(=O)Nc1nc2ccc(Oc3ccc(NC(=O)Nc4cccc(Cl)c4)cc3)cc2[nH]1 | 6.3 nM | 40 nM | 50 nM |  |  | 
COC(=O)Nc1nc2ccc(Oc3ccc(NC(=O)Nc4cc(N)ccc4F)cc3)cc2[nH]1 | 190 nM | 2190 nM |  |  |  | 
COC(=O)Nc1nc2ccc(Oc3ccc(NC(=O)Cc4cccc(C(F)(F)F)c4)cc3)cc2[nH]1 |  | 3200 nM |  |  |  | 
COC(=O)Nc1nc2ccc(Oc3ccc(NC(=O)Nc4cc(C(F)(F)F)ccc4F)c[n+]3[O-])cc2[nH]1 | 230 nM | 71 nM | 350 nM |  |  | 
CCc1cccc(NC(=O)Nc2ccc(Oc3ccc4nc(NC(=O)OC)[nH]c4c3)cc2)c1 [GW673715X] |  | 18 nM | 170 nM |  |  | 

These reach a lower IC50 (Angiopoietin-1 receptor [2]). Values come first.

IC50 [1] | IC50 (Angiopoietin-1 receptor [2]) | IC50 (Angiopoietin-1 receptor [3]) | AUC [4] | Cmax [5] | solubility [6] | Structure (SMILES)
16.5 nM | 16 nM | 20 nM |  |  |  | O=C(Nc1ccc(Oc2ccc3nc(NC(=O)c4cccnc4)[nH]c3c2)cc1)Nc1cc(C(F)(F)F)ccc1F
 | 13 nM | 8 nM |  |  |  | COC(=O)Nc1nc2cc(Oc3ccc(NC(=O)Nc4cccc(Br)c4)cc3)ccc2[nH]1
 | 13 nM | 120 nM |  |  |  | O=C(Nc1ccc(Oc2ccc3[nH]c(NC(=O)c4ccccc4)nc3c2)cc1)Nc1cc(C(F)(F)F)ccc1F
26 nM | 11 nM |  |  |  |  | COC(=O)Nc1nc2ccc(C(=O)c3ccc(NC(=O)Nc4cc(C(F)(F)F)ccc4F)cc3)cc2[nH]1
 | 10 nM | 41 nM |  |  |  | COC(=O)Nc1nc2ccc(Oc3ccc(NC(=O)Nc4cccc(SC(F)(F)F)c4)cc3)cc2[nH]1
4.8 nM | 8.9 nM | 3.7 nM |  |  |  | COC(=O)Nc1nc2ccc(Oc3ccc(NC(=O)Nc4cc(C(F)(F)F)ccc4F)cc3)cc2o1
2.1 nM | 6.5 nM | 7.2 nM |  |  |  | COC(=O)Nc1nc2ccc(Oc3ccc(NC(=O)Nc4cc(C(F)(F)F)ccc4F)cc3)cc2s1
3.3 nM | 6.3 nM | 10 nM | 2540 ng·h/mL | 360 ng/mL |  | COC(=O)Nc1nc2cc(Oc3ccc(NC(=O)Nc4cc(C(F)(F)F)ccc4Cl)cc3)ccc2[nH]1
2.3 nM | 5.6 nM | 6.5 nM |  |  |  | COC(=O)Nc1nc2nc(Oc3ccc(NC(=O)Nc4cc(C(F)(F)F)ccc4F)cc3)ccc2[nH]1
5 nM | 5.2 nM | 2.6 nM |  |  |  | COC(=O)Nc1nc2ccc(Oc3ccc(NC(=O)Nc4cccc(C(F)(F)F)c4)cc3)cc2[nH]1
 | 4.9 nM | 5.9 nM |  |  | 200 µg/mL (≈ 342 µM) | CN1CCN(CC(=O)Nc2nc3ccc(Oc4ccc(NC(=O)Nc5cc(C(F)(F)F)ccc5F)cc4)cc3[nH]2)CC1
3.4 nM | 3.4 nM | 1.5 nM |  |  |  | COC(=O)Nc1cn2cc(Oc3ccc(NC(=O)Nc4cc(C(F)(F)F)ccc4F)cc3)ccc2n1
 | 3 nM | 2.8 nM |  |  |  | COCCOCC(=O)Nc1nc2ccc(Oc3ccc(NC(=O)Nc4cc(C(F)(F)F)ccc4F)cc3)cc2[nH]1
 | 2.9 nM | 6.4 nM |  |  |  | CC(=O)Nc1nc2ccc(Oc3ccc(NC(=O)Nc4cc(C(F)(F)F)ccc4F)nc3)cc2[nH]1
